From patent US20090047282A1, “Prophylactic/Therapeutic Agent for Cancer” (priority 2005, published 2009)
Where no end group is shown, it is not given here. The star is where a group is joined. Biotin = O=C1N[C@H]2[C@H](CS[C@H]2CCCCC(=O)*)N1

Columns and labels:
human Shh = assay: Knockdown efficiency of siRNA checked with the TaqMan method (quantitative RT-PCR), human Shh expression; assay type: cell-based; conditions: HT-29 cells, 100 nM siRNA, 5th day after introduction, vs non-silencing siRNA
Description: (§1) […] After culturing the cells overnight, siRNA to human Shh (Ambion; SEQ ID NO: 19), siRNA to human HHAT (Ambion; SEQ ID NO: 20), or non-silencing siRNA (Dhamacon, SEQ ID NO: 21) as a control was introduced. The introduction was performed by adding a mixture of 0.4 μl of DhamaFECT4 reagent (Dhamacon) per well and 100 nM of each siRNA to the cells. The knockdown efficiency of each siRNA at this point was checked with the TaqMan method. On the 5th day after the introduction of siRNA, total RNA was extracted from the HT-29 cells using RNeasy mini kit (QIAGEN), and cDNA was synthesized from a random primer using the TaqMan Gold RT-PCR kit (Applied Biosystems). 2 μl of the synthesized cDNA, 10 μl of 2×TaqMan Universal PCR Master Mix (Applied Biosystems), 1 μl of 20×TaqMan Gene Expression Assay (Applied Biosystems) to the human Shh or HHAT, and 7 μl of distilled water were added together to a total amount of 20 μl. This was used as a reaction solution of quantificative RT-PCR.
(§2) Regarding the reaction solution, the expression of human Shh or human HHAT was quantified in the ratio to GAPDH using the ABI PRISM 7700 Sequence Detection System. As compared with the control, the gene expression was suppressed by about 75% in the case of siRNA to human Shh and by about 60% in the case of siRNA to human HHAT.

human HHAT [1] = assay: Knockdown efficiency of siRNA checked with the TaqMan method (quantitative RT-PCR), human HHAT expression; assay type: cell-based; conditions: HT-29 cells, 100 nM siRNA, 5th day after introduction, vs non-silencing siRNA
Description: as §1, §2

human HHAT [2] = assay: HHAT activity measurement with [3H] palmitoyl CoA and biotinylated substrate peptide on Streptavidin FlashPlate; assay type: biochemical; conditions: 10 μM substrate peptide, reaction 1 hour, FIG. 2
Text: A peptide (Shh-(24-38)) having 15-mer peptide comprised of amino acids from the 24th position to the 38th position of human Shh (SEQ ID NO: 22) modified with biotin at the lysine residue at the carboxylic terminus, and a peptide (Shh-(24-45)) having 22-mer peptide comprised of amino acids from the 24th position to the 45th position of human Shh modified with biotin at the lysine residue at the carboxylic terminus, were synthesized as a substrate peptide. An HHAT activity measuring system was produced by adding 50 μl reaction buffer (10 mM Tris-HCl (pH7.4), 50 mM magnesium chloride, 2 μM [^3H] palmitoyl CoA, and 400 μg/ml of HHAT enzyme solution) to a 96-well plate coated with streptavidin and a scintillator (Streptavidin FlashPlate, PerkinElmer). The above-mentioned synthetic peptides were added to the reaction system and reacted for a predetermined period. Then, the reaction was terminated by adding 200 μl of 1% aqueous solution of Triton X-100 to the reaction solution. After the reaction, the radioactivity of the reaction solution was measured by the scintillation counter as an HHAT activity.
[^3H] palmitoyl CoA was prepared from [^3H] palmitic acid (GE Healthcare) by a method described in Methods in Enzymology, 250, 299-300, 1995. […]

| Substance | HHAT activity (radioactivity of [3H]-palmitic acid added to the substrate peptide) compared with control without HHAT enzyme solution (human HHAT [2]) | also measured |
| --- | --- | --- |
| siRNA to human Shh: siRNA to human Shh (Ambion; SEQ ID NO: 19) (GGGAAGAUCUCCAGAAACUTT; chemistry not given here) | – | suppression of gene expression of human Shh (ratio to GAPDH) compared with the control (human Shh): about 75% |
| siRNA to human HHAT: siRNA to human HHAT (Ambion; SEQ ID NO: 20) (GGAAUUUGAGCUGGAGACUTT; chemistry not given here) | – | suppression of gene expression of human HHAT (ratio to GAPDH) compared with the control (human HHAT [1]): about 60% |
| Shh-(24-38): 15-mer peptide of amino acids 24 to 38 of human Shh (SEQ ID NO: 22), biotin-modified at the carboxy-terminal lysine residue; HHAT substrate peptide (CGPGRGFGKRRHPKK(Biotin)) | conspicuous increase of the radioactivity | – |
| Shh-(24-45): 22-mer peptide of amino acids 24 to 45 of human Shh, biotin-modified at the carboxy-terminal lysine residue; HHAT substrate peptide (CGPGRGFGKRRHPKKLTPLAYK(Biotin)) | conspicuous increase of the radioactivity | – |
